Reference: ChEMBL document CHEMBL2346599, “Rational design and binding mode duality of MDM2-p53 inhibitors” (J Med Chem, 2013)
The source made the active and inactive calls. No cut-off for these calls is given here.

How the values were obtained:
[1] = target: T1, E3 ubiquitin-protein ligase Mdm2 (Homo sapiens, UniProt Q00987); assay: Inhibition of human recombinant GST-thrombin-MDM2 (1 to 188) expressed in Escherichia coli assessed as reduction of MDM2-p53 interaction incubated for 20 mins followed by p53 addition measured after 60 mins by HTRF assay in presence of 15% serum
T1 sequence (Q00987 whole entry): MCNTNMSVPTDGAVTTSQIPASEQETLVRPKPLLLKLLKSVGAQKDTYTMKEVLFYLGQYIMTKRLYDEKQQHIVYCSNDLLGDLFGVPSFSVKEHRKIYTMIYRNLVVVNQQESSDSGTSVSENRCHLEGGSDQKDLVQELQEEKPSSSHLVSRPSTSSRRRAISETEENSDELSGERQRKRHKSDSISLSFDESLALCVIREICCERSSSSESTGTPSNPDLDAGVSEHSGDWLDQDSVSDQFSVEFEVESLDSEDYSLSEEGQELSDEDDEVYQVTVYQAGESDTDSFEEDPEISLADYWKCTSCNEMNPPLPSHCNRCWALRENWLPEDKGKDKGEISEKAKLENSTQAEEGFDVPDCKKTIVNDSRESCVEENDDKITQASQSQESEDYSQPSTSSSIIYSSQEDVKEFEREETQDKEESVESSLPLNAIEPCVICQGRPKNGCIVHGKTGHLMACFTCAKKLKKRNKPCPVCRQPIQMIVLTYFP

[2] = target: T1, E3 ubiquitin-protein ligase Mdm2; assay: Inhibition of human recombinant GST-thrombin-MDM2 (1 to 188) expressed in Escherichia coli assessed as reduction of MDM2-p53 interaction incubated for 20 mins followed by p53 addition measured after 60 mins by HTRF assay
[3] = target: T2, Protein Mdm4 (Homo sapiens, UniProt O15151); assay: Binding affinity to MDMX (unknown origin) after 20 mins by HTRF assay
T2 sequence (O15151 whole entry): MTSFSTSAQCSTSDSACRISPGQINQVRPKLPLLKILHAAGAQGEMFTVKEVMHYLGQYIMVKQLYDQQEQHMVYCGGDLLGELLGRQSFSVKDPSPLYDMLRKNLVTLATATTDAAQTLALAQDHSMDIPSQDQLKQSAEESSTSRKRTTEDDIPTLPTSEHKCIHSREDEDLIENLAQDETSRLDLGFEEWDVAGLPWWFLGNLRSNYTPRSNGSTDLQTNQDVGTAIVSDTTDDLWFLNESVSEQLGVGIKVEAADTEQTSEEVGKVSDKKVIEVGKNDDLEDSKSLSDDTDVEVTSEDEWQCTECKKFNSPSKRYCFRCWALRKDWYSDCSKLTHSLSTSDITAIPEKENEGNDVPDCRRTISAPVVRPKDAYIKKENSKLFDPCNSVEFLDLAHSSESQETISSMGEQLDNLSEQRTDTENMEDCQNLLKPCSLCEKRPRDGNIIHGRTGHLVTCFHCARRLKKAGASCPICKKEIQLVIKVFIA

[4] = Drug uptake in tumor of athymic nude mouse xenografted with human SJSA1 cells at 100 mg/kg, po qd after 7 hrs; format: ADME, organism-based, Neoplasm, SJSA-1; design: dose 100 mg/kg, route oral; conditions: read-out: Drug uptake
[5] = Drug uptake in tumor of athymic nude mouse xenografted with human SJSA1 cells at 300 mg/kg, po qd after 7 hrs; format: ADME, organism-based, Neoplasm, SJSA-1; design: dose 300 mg/kg, route oral; conditions: read-out: Drug uptake
[6] = Drug uptake in tumor of athymic nude mouse xenografted with human SJSA1 cells at 30 mg/kg, po qd after 7 hrs; format: ADME, organism-based, Neoplasm, SJSA-1; design: dose 30 mg/kg, route oral; conditions: read-out: Drug uptake
[7] = Plasma concentration in athymic nude mouse xenografted with human SJSA1 cells at 300 mg/kg, po qd after 7 hrs; format: ADME, organism-based, SJSA-1; design: dose 300 mg/kg, route oral
[8] = Fraction unbound in rat plasma; format: ADME, cell-free
[9] = Fraction unbound in human plasma; format: ADME, cell-free
[10] = Oral bioavailability in athymic nude mouse at 5 mg/kg; format: ADME, organism-based; conditions: in vivo
[11] = Fraction unbound in mouse plasma; format: ADME, cell-free
[12] = Volume of distribution at steady state in athymic nude mouse at 1 mg/kg, iv; format: ADME, organism-based; design: dose 1 mg/kg, route intravenous; conditions: in vivo, read-out: Vdss
[13] = Half life in athymic nude mouse at 1 mg/kg, iv; format: ADME, organism-based; design: dose 1 mg/kg, route intravenous; conditions: in vivo
[14] = AUC in athymic nude mouse at 5 mg/kg, po; format: ADME, organism-based; design: dose 5 mg/kg, route oral; conditions: plasma
[15] = Clearance in athymic nude mouse at 1 mg/kg, iv; format: ADME, organism-based; design: dose 1 mg/kg, route intravenous; conditions: in vivo
[16] = species: Mus musculus; conditions: SJSA-1, 30 to 100 mg/kg
Description: In vivo inhibition of MDM2 in human SJSA1 cells xenografted in athymic nude mouse assessed as upregulation of p21 mRNA level at 30 to 100 mg/kg, po qd after 7 hrs by qRT-PCR analysis

In the case of `CN1C(=O)CO[C@@H](c2ccc(Cl)cc2)[C@H]1c1cccc(Cl)c1` (racemic), the IC50 [1] is reported as > 30 µM and the IC50 [2] is reported as > 30 µM.
With `CC(C)(C)OC(=O)N1CC(=O)N[C@H](c2ccc(Br)cc2)[C@@H]1c1ccc(Br)cc1` (racemic) the IC50 [2] was > 30 µM.
For `COc1ccc([C@H]2CC(=O)C=C(c3ccc(Cl)cc3)[C@@H]2c2ccc(Cl)cc2)cc1OC` (racemic), the IC50 [2] was > 30 µM.
With `O=C(O)C[C@H]1C[C@H](c2cccc(Cl)c2)[C@@H](c2ccc(Cl)cc2)N(CC2CC2)C1=O` the IC50 [3] was > 30 µM.
In the case of `CN1C[C@H](Cc2ccccc2)O[C@@H](c2ccc(Br)cc2)[C@H]1c1ccc(Br)cc1` (racemic), the IC50 [2] is reported as > 30 µM.
For `CCC[C@H](C(=O)O)N1C(=O)[C@H](Cc2ccc(F)cc2)O[C@@H](c2ccc(Cl)cc2)[C@H]1c1ccc(Cl)cc1`, the IC50 [3] was > 30 µM.
With `CN1C(=O)[C@H](Cc2ccccc2)O[C@@H](c2ccc(Br)cc2)[C@H]1c1ccc(Br)cc1` the IC50 [3] was > 30 µM.
`O=C(O)C[C@@H]1O[C@@H](c2cccc(Cl)c2)[C@@H](c2ccc(Cl)cc2)N(CC2CC2)C1=O` showed a concentration at 7 h [4] of 2.1 µM, a concentration at 7 h [5] of 22.9 µM and a concentration at 7 h [6] of 0.3 µM. For the same molecule, the concentration at 7 h [7] was 102 µM, the fraction unbound [8] was 0.06 and the fraction unbound [9] was 0.042. The bioavailability [10] was 59%, the fraction unbound [11] was 0.059 and the Vd [12] was 3.9 L/kg. The half-life [13] was 4.1 h, the AUC [14] was 4.1 µM·h and the clearance [15] was 28.3 mL/min/kg. The IC50 [3] was > 30 µM and the inhibition [16] was “inactive”.
